Source: the C3SDB collision cross section collection

Settings: [M+H]+; instrument: TW

Structure (SMILES)	collision cross section (N2) [Å²]
CCNc1nc(Cl)nc(NC(C)(C)C)n1 [Terbuthylazine]	153.48
CC1=NNC(=O)N(/N=C/c2cccnc2)C1 [Pymetrozine]	150.71
CON(C)C(=O)Nc1ccc(Cl)c(Cl)c1 [Linuron]	149.63
C=C1C[C@@]23CC[C@H]4[C@@](C)(CCC[C@@]4(C)C(=O)O[C@@H]4O[C@H](CO)[C@@H](O)[C@H](O)[C@H]4O)[C@@H]2CC[C@]1(O[C@@H]1O[C@H](CO)[C@@H](O)[C@H](O)[C@H]1O[C@@H]1O[C@H](CO)[C@@H](O)[C@H](O)[C@H]1O)C3 [Stevioside]	269.64
CC(C)Oc1cccc(NC(=O)c2ccccc2C(F)(F)F)c1 [Flutolanil]	175.45
CS(=O)(=O)c1ccc(C(=O)C2C(=O)CCCC2=O)c([N+](=O)[O-])c1 [Mesotrione]	175.66
c1ccc([C@H]2CN3CCSC3=N2)cc1 [Levamisole]	138.2
COCC(=O)N(c1c(C)cccc1C)C(C)C(=O)OC (stereo unspecified) [Metalaxyl]	159.96
COP(=O)(OC)OC=C(Cl)Cl [Dichlorvos]	133.07
Cc1c(Nc2ncccc2C(=O)O)cccc1C(F)(F)F [Flunixin]	159.1
CO/C=C(/C(=O)OC)c1ccccc1COc1cccc(C(F)(F)F)n1 [Picoxystrobin]	177.5
C[C@H]1c2cccc(O)c2C(=O)C2=C(O)[C@]3(O)C(=O)C(C(N)=O)=C(O)[C@@H](N(C)C)[C@@H]3[C@@H](O)[C@@H]21 [Doxycycline]	197.4
C=C1C[C@@]23CC[C@H]4[C@@](C)(CCC[C@@]4(C)C(=O)O[C@@H]4O[C@H](CO)[C@@H](O)[C@H](O)[C@H]4O)[C@@H]2CC[C@]1(O[C@@H]1O[C@H](CO)[C@@H](O)[C@H](O)[C@H]1O)C3 [Rubusoside]	241.31
O=C(O)Cc1ccccc1Nc1c(Cl)cccc1Cl [Diclofenac]	157.2
O=C(O)c1cccnc1Nc1cccc(C(F)(F)F)c1 [Niflumic acid]	156.8
C=C1C[C@@]23CC[C@H]4[C@@](C)(CCC[C@@]4(C)C(=O)O[C@@H]4O[C@H](CO)[C@@H](O)[C@H](O)[C@H]4O)[C@@H]2CC[C@]1(O[C@@H]1O[C@H](CO)[C@@H](O)[C@H](O[C@@H]2O[C@H](CO)[C@@H](O)[C@H](O)[C@H]2O)[C@H]1O[C@@H]1OC[C@@H](O)[C@H](O)[C@H]1O)C3 [Rebaudioside F]	293.18
Nc1c(Cl)cc(C(O)CNC2CCC(O)CC2)cc1Cl (stereo unspecified) [Clencyclohexerol]	164.7
COc1ccc2cc([C@H](C)C(=O)O)ccc2c1 [Naproxen]	147.1
CC(C)(C)NCC(O)c1cc(Br)c(N)c(Br)c1 (stereo unspecified) [Brombuterol]	167
COC(=O)NC(=S)Nc1ccccc1NC(=S)NC(=O)OC [Thiophanate-methyl]	174.24
C=C1C[C@@]23CC[C@H]4[C@@](C)(CCC[C@@]4(C)C(=O)O[C@@H]4O[C@H](CO)[C@@H](O)[C@H](O)[C@H]4O[C@@H]4O[C@H](CO)[C@@H](O)[C@H](O)[C@H]4O)[C@@H]2CC[C@]1(O[C@@H]1O[C@H](CO)[C@@H](O)[C@H](O)[C@H]1O[C@@H]1O[C@H](CO)[C@@H](O)[C@H](O)[C@H]1O)C3 [Rebaudioside E]	289.2
CCCNC[C@]1(O)[C@H](C)O[C@@H](O[C@H]2[C@H](C)[C@@H](O[C@@H]3O[C@H](C)C[C@H](N(C)C)[C@H]3O)[C@](C)(O)C[C@@H](C)CN[C@H](C)[C@@H](O)[C@](C)(O)[C@@H](CC)OC(=O)[C@@H]2C)C[C@@]1(C)OC [Tulathromycin]	286.4
Fc1ccc(cc1)N\3c2cc(c(F)cc2C(=O)C(/C(=O)O)=C/3)N4CCN(C)CC4 [Difloxacine]	192.3
O=C(NC(=O)c1c(F)cccc1F)Nc1ccc(Cl)cc1 [Diflubenzuron]	160.98

Structure (SMILES)	collision cross section (N2) [Å²]
C[C@]12CC[C@H]3[C@@H](CCC4=C(Cl)C(=O)CC[C@@]43C)[C@@H]1CC[C@@H]2O [Clostebol]	173.6
CCOP(=O)(NC(C)C)Oc1ccc(S(C)(=O)=O)c(C)c1 (stereo unspecified) [Fenamiphos sulfone]	179.48
CC(Oc1ccc(Oc2ncc(C(F)(F)F)cc2Cl)cc1)C(=O)O (stereo unspecified) [Haloxyfop]	179.86
COC(=O)C(C)N(C(=O)c1ccco1)c1c(C)cccc1C (stereo unspecified) [Furalaxyl]	167.15
CCOP(=S)(OCC)SCS(=O)(=O)C(C)(C)C [Terbufos-sulfone]	172.88
O=C(Nc1ccccc1-c1ccc(Cl)cc1)c1cccnc1Cl [Boscalid]	171.67
C=C1C[C@@]23CC[C@H]4[C@@](C)(CCC[C@@]4(C)C(=O)O[C@@H]4O[C@H](CO)[C@@H](O)[C@H](O)[C@H]4O)[C@@H]2CC[C@]1(O[C@@H]1O[C@H](CO)[C@@H](O)[C@H](O[C@@H]2O[C@H](CO)[C@@H](O)[C@H](O)[C@H]2O)[C@H]1O[C@@H]1O[C@@H](C)[C@H](O)[C@@H](O)[C@H]1O)C3 [Rebaudioside C]	299.49
O=C(O)c1c(Cl)ccc2cc(Cl)cnc12 [Quinclorac]	139.54
CC(C)(C)C(O)(CCc1ccc(Cl)cc1)Cn1cncn1 (stereo unspecified) [Tebuconazole]	167.37
COP(=O)(OC)OC1=C(Cl)C2C=CCC12 (stereo unspecified) [Heptenophos]	144.04
O=C(O)\C3=C\N(c2cc(N1CCN(CC)CC1)c(F)cc2C3=O)C4CC4 [Enrofloxacine]	194.8
C=C1C[C@@]23CC[C@H]4[C@@](C)(CCC[C@@]4(C)C(=O)O)[C@@H]2CC[C@]1(O[C@@H]1O[C@H](CO)[C@@H](O)[C@H](O[C@@H]2O[C@H](CO)[C@@H](O)[C@H](O)[C@H]2O)[C@H]1O[C@@H]1O[C@H](CO)[C@@H](O)[C@H](O)[C@H]1O)C3 [Rebaudioside B]	261.19
CC(NC(=O)C(NC(=O)O)C(C)C)c1nc2ccc(F)cc2s1 (stereo unspecified) [Benthiavalicarb]	173.38
CC(Cc1ccc(O)cc1)NCC(O)c1cc(O)cc(O)c1 (stereo unspecified) [Fenoterol]	180.4
CCCCCCCCSC(=O)Oc1cc(Cl)nnc1-c1ccccc1 [Pyridate]	199.9
CCCN1C[C@H](C)[C@@H](O)[C@](C)(O)[C@@H](CC)OC(=O)[C@H](C)[C@@H](O[C@H]2C[C@@](C)(OC)[C@@H](O)[C@H](C)O2)[C@H](C)[C@@H](O[C@@H]2O[C@H](C)C[C@H](N(C)C)[C@H]2O)[C@](C)(O)C[C@H]1C [Gamithromycin]	280.6
CC(C)c1ncc([N+](=O)[O-])n1C [Ipronidazole]	126.1
CC(C(=O)O)c1ccc(N2Cc3ccccc3C2=O)cc1 (stereo unspecified) [Indoprofen]	166.4
CCCCC(O)(Cn1cncn1)c1ccc(Cl)cc1Cl (stereo unspecified) [Hexaconazole]	171.26
C[C@H]1C[C@H]2[C@@H]3CCC4=CC(=O)C=C[C@]4(C)[C@@]3(F)[C@@H](O)C[C@]2(C)[C@@]1(O)C(=O)CCl [Clobetasol]	201.29
COc1cc(NS(=O)(=O)c2ccc(N)cc2)nc(OC)n1 [Sulfadimethoxine]	166
CC(Oc1ccc(Oc2ccc(C(F)(F)F)cn2)cc1)C(=O)O (stereo unspecified) [Fluazifop]	173.47
CCOC(=O)NCCOc1ccc(Oc2ccccc2)cc1 [Fenoxycarb]	178.44
CCN(Cc1ccc(Cl)nc1)/C(=C/[N+](=O)[O-])NC [Nitenpyram]	160.32

Settings: [M+2K]2+; instrument: TW; calibrated with phosphatidylcholines (ESI+) and phosphatidylethanolamines (ESI-), doubly charged cardiolipins calibrated with poly-DL-…

collision cross section (N2) [Å²]	Structure (SMILES)
425.4	CCCCCC/C=C\CCCCCCCC(=O)OC(COC(=O)CCCCCCCCCCCCCCC)COP(=O)(O)OCC(O)COP(=O)(O)OCC(COC(=O)CCCCCCCCCCCCCCC)OC(=O)CCCCCCCC1CC1CCCCCC (stereo unspecified) [CL(65:2)]

Same assay, conditions: [M+H]+; instrument: TW; calibrated with phosphatidylcholines (ESI+) and phosphatidylethanolamines (ESI-), doubly charged cardiolipins calibrated with poly-DL-…

collision cross section (N2) [Å²]	Structure (SMILES)
276.82	CCCCCCCC/C=C\CCCCCCCC(=O)OCC(COP(=O)(O)OCCN)OC(=O)CCCCCCC/C=C\CCCCCCCC (stereo unspecified) [PE(36:2)]
260.6	CCCCCC/C=C\CCCCCCCC(=O)OCC(COP(=O)(O)OCCN)OC(=O)CCCCCCCCCCCCC (stereo unspecified) [PE(30:1)]

Same assay, conditions: [M+Na]+; instrument: TW; calibrated with phosphatidylcholines (ESI+) and phosphatidylethanolamines (ESI-), doubly charged cardiolipins calibrated with poly-DL-…

collision cross section (N2) [Å²]	Structure (SMILES)
272.75	CCCCCCCCCCCCCCCC(=O)OCC(COP(=O)(O)OCC(O)CO)OC(=O)CCCCCCCCCCCCC (stereo unspecified) [PG(30:0)]

Same assay, conditions: [M-2H]2-; instrument: TW; calibrated with phosphatidylcholines (ESI+) and phosphatidylethanolamines (ESI-), doubly charged cardiolipins calibrated with poly-DL-…

collision cross section (N2) [Å²]	Structure (SMILES)
399.77	CCCCCC/C=C\CCCCCCCC(=O)OC(COC(=O)CCCCCCCCCCCCCCC)COP(=O)(O)OCC(O)COP(=O)(O)OCC(COC(=O)CCCCCCCCCCCCCCC)OC(=O)CCCCCCCC1CC1CCCCCC (stereo unspecified) [CL(65:2)]
408.93	CCCCCCCC/C=C\CCCCCCCC(=O)OC(COC(=O)CCCCCCCCCCCCCCC)COP(=O)(O)OCC(O)COP(=O)(O)OCC(COC(=O)CCCCCCCC1CC1CCCCCCCC)OC(=O)CCCCCCCCCCCCCCC (stereo unspecified) [CL(69:2)]

Same assay, conditions: [M-H]-; instrument: TW; calibrated with phosphatidylcholines (ESI+) and phosphatidylethanolamines (ESI-), doubly charged cardiolipins calibrated with poly-DL-…

collision cross section (N2) [Å²]	Structure (SMILES)
258.02	CCCCCCCCCCCCCCCC(=O)OCC(COP(=O)(O)OCC(O)CO)OC(=O)CCCCCCCCCCCCC (stereo unspecified) [PG(30:0)]
208.96	CCCCCCCCCCCCCCC(=O)O[C@H](CO)COP(=O)(O)OCC(O)CO (stereo partly specified) [LPG(15:0)]
217.72	CCCCCCCC/C=C/CCCCCCCC(=O)OC[C@@H](O)COP(=O)(O)OCC(O)CO (stereo partly specified) [LPG(18:1)]
269.17	CCCCCCCC/C=C\CCCCCCCC(=O)OCC(COP(=O)(O)OCCN)OC(=O)CCCCCCC/C=C\CCCCCCCC (stereo unspecified) [PE(36:2)]
221.18	CCCCCCCCC1CC1CCCCCCCC(=O)OC[C@@H](O)COP(=O)(O)OCC(O)CO (stereo partly specified) [LPG(19:1)]
248.78	CCCCCC/C=C\CCCCCCCC(=O)OCC(COP(=O)(O)OCCN)OC(=O)CCCCCCCCCCCCC (stereo unspecified) [PE(30:1)]
312.53	CCCC/C=C\CCCCCCCC(=O)O[C@H](COC(=O)CCCCCCC/C=C\CCCCCC)COP(=O)(O)OC[C@@H](O)COC(=O)CCCCCCCCCCCCCCC [AcylPG(46:2)]
